How the values were obtained:
MCT1 = MCT1 (Homo sapiens (Human), UniProt P53985); assay: Assay 4: MCT1-mediated lactate transport in BT20 breast cancer cells; assay type: cell-based; conditions: lactate transport (Table 27)
Procedure: Preparing BCECF-Loaded Cells
10 µL of a 30 mM DMSO stock of BCECF-AM ester (Life Technologies) is added and the cells are incubated at 37° C. for 5 min. The cells are pelleted (300 g, 5 min), washed once with 1 mL Tyrode's Solution, pH 7.4, re-pelleted (300 g, 5 min), and resuspended in 1 mL Tyrode's Solution, pH 7.4.
Assay 4: MCT1-Mediated Lactate Transport in BT20 Breast Cancer Cells.
Preparation of BCECF loaded cells are as described for Assay 1. Lactate transport assay is as described for Assay 1, except 10 mM L-lactate (rather than 50 mM) is added.

[1] = Metabolic stability in human liver microsomes (in vitro t1/2); assay type: in vitro ADME; conditions: human liver microsomes 0.5 mg/mL, 2 μM compound, % remaining at 60 min
Procedure: (§1) Metabolic Stability Assays The following are assays that may be used to evaluate the metabolic stability of compounds of Formula (I) in human, rat, or mouse microsomes. The assays follow a common procedure recited below. 1. […] Two separated experiments were performed as follows. a) With NADPH: 10 μL of 20 mg/mL liver microsomes and 40 μL of 10 mM NADPH were added to the incubations. […] The final concentration of microsomes was 0.5 mg/mL. 3. The reaction was started with the addition of 4 μL of 200 μM control compound or test compound solutions. Verapamil was used as positive control in this study. The final concentration of test compound or control compound was 2 μM. 4. Aliquots of 50 μL were taken from the reaction solution at 0, 15, 30, 45 and 60 min. […] Samples were centrifuged at 3,220 g for 40 minutes. A 90 μL aliquot of the supernatant was mixed with 90 μL of ultra-pure H2O and then used for LC-MS/MS analysis. 5. Data analysis. All calculations were carried out using Microsoft Excel. Peak areas were determined from extracted ion chromatograms. The slope value, k, was determined by linear regression of the natural logarithm of the remaining percentage of the parent drug vs. incubation time curve. The in vitro half-life (in vitro t1/2) was determined from the slope value: in vitro t1/2=−(0.693)/k.

[2] = Metabolic stability in mouse liver microsomes (in vitro t1/2); assay type: in vitro ADME; conditions: mouse liver microsomes 0.5 mg/mL, 2 μM compound; for Mouse microsome % 60 min: % remaining at 60 min
Procedure: as §1

[3] = Metabolic stability in rat liver microsomes (in vitro t1/2); assay type: in vitro ADME; conditions: rat liver microsomes 0.5 mg/mL, 2 μM compound, % remaining at 60 min
Procedure: as §1

[4] = Pharmacokinetic assay in rat (IV 3 mg/kg, PO 10 mg/kg); assay type: in vivo; conditions: male, Sprague-Dawley, plasma, read-out: Rat F (%)
From the text: Pharmacokinetic Assays in Mouse and Rat
The following are assays that may be used to evaluate the pharmacokinetic properties of Formula (I) in mouse or rat. The assays follow a common procedure recited below.
1. […] For PO (oral gavage), DMSO/PEG400 (10:90). Formulations freshly prepared on the day of dosing or prior to dosing. Storage at room temperature.
2. Test Species: For Mouse: Male CD1 strain, approximately 6-8 weeks in age, approximately 20-30 g. For Rat: Male Sprague-Dawley strain, approximately 6-8 weeks in age, approximately 200-300 g.
3. Dose Level: For IV, 3 mg/kg. For PO, 10 mg/kg.
4. Number of animals: 3 per assay.
5. PK time points: For IV (plasma): 5 min, 15 min, 1, 2, 4, 6, 8, 24 h post dose. For PO (plasma): 15 min, 30 min, 1, 2, 4, 6, 8, 24 h post dose.
6. Blood Sample Collection and Processing. Blood was collected (˜0.2 mL per time point) from jugular vein. Blood of each sample was transferred into plastic micro centrifuge tubes containing anticoagulant of EDTA-K2. Blood samples were centrifuged at 2,000 g for 5 minutes at 4° C. to obtain plasma.
7. Samples Analysis: Plasma samples were analyzed using LC/MS/MS method, and pharmacokinetic parameters (half-life: t1/2; oral bioavailability: F; volume of distribution: Vss).

CFA-induced arthritis [5] = assay: Adjuvant-induced arthritis model in rat: Difference of Weight Bearing test (DWB); assay type: in vivo; conditions: SD rat, PO 3 days post CFA, compared to dexamethasone
CFA-induced arthritis [6] = assay: Adjuvant-induced arthritis model in rat: Mechanical Allodynia test (MA); assay type: in vivo; conditions: SD rat, PO 3 days post CFA, compared to dexamethasone

Sequence of MCT1 (P53985 whole entry): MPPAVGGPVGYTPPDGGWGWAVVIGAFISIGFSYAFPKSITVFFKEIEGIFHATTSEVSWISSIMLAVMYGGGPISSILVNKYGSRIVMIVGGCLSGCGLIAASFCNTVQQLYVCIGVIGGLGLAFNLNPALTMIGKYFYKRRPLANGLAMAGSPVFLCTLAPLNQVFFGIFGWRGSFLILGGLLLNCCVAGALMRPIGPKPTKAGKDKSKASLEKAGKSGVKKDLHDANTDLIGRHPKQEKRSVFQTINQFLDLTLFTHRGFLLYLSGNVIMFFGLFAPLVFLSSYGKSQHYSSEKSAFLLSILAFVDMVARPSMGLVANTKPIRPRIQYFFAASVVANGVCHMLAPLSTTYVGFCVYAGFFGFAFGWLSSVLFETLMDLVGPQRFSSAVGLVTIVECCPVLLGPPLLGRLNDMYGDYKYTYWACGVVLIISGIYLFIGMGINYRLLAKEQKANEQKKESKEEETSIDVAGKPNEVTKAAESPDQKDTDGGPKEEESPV
Sequence of MCT1 (P35613 140-385 partner): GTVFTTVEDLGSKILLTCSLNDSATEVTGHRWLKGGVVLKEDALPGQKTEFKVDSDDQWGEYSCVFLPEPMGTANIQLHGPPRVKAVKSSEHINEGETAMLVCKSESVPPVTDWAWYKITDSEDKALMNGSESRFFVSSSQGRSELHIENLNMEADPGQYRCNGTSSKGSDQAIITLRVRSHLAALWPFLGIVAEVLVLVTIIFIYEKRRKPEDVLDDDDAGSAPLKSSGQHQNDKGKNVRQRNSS

| Structure (SMILES) | IC50 (MCT1) | other results |
| --- | --- | --- |
| CC(C)CNc1cccc(-c2cc(COC(C)(C)C(=O)O)nn2Cc2ccccc2Cl)c1 [Example 73, 2-([1-[(2-chlorophenyl)methyl]-5-[3-[(2-methylpropyl)amino]phenyl]-1H-pyrazol-3-yl]methoxy)-2-methyl-propanoic acid] | > 11000 nM | – |
| CC(C)(OCc1cc(-c2cccc(OCC(F)(F)F)c2)n(Cc2ccccc2Cl)n1)C(=O)O [Example 43, 2-([1-[(2-Chlorophenyl)methyl]-5-[3-(2,2,2-trifluoroethoxy)phenyl]1H-pyrazol-3-yl]methoxy)-2-methylpropanoic acid] | > 33000 nM | – |
| CC(C)NC(=O)c1cccc(-c2cc(COC(C)(C)C(=O)O)nn2Cc2ccccc2Cl)c1 [Example 74, 2-([1-[(2-Chlorophenyl)methyl]-5-[3-[(propan-2-yl)carbamoyl]phenyl]-1H-pyrazol-3-yl]methoxy)-2-methyl-propanoic acid] | > 100000 nM | – |
| COc1cccc(-c2cc(COC(C)(C)C(=O)O)nn2-c2ccccc2Cl)c1 [Example 57, 2-([1-(2-chlorophenyl)-5-(3-methoxyphenyl)-1H-pyrazol-3-yl]methoxy)-2-methylpropanoic acid] | > 133000 nM | Human microsome % 60 min [1]: 80%; Mouse microsome % 60 min [2]: 100% |
| CC(C)(OCc1cc(-c2ccsc2)n(Cc2ccccc2Cl)n1)C(=O)O [Example 24, 2-([1-[(2-Chlorophenyl)methyl]-5-(thien-3-yl)1H-pyrazol-3-yl]methoxy)-2-methylpropanoic acid] | > 100000 nM | – |
| CC(C)(OCc1cc(-c2cscn2)n(Cc2ccccc2Cl)n1)C(=O)O [Example 47, 2-([1-[(2-Chlorophenyl)methyl]-5-(1,3-thiazol-4-yl)-1H-pyrazol-3-yl]methoxy)-2-methylpropionic acid] | > 100000 nM | – |
| COc1cccc(-c2cc(COC(C)(C)C(=O)O)nn2Cc2ccccc2)c1 [Example 53, 2-([1-benzyl-5-(3-methoxyphenyl)-1H-pyrazol-3-yl]methoxy)-2-methyl-propanoic acid] | > 100000 nM | – |
| CC(C)(OCc1cc(-c2cccc(S(C)(=O)=O)c2)n(Cc2ccccc2Cl)n1)C(=O)O [Example 70, 2-([1-[(2-Chlorophenyl)methyl]-5-(3-methanesulfonylphenyl)-1H-pyrazol-3-yl]methoxy)-2-methylpropanoic acid] | > 100000 nM | – |
| CC(C)C(=O)Nc1cccc(-c2cc(COC(C)(C)C(=O)O)nn2Cc2ccccc2Cl)c1 [Example 69, 2-([1-[(2-Chlorophenyl)methyl]-5-[3-(2-methylpropanamido)phenyl]-1H-pyrazol-3-yl]methoxy)-2-methylpropanoic acid] | > 100000 nM | – |
| CC(C)(OCc1cc(-c2cccc(CN3CCOCC3)c2)n(Cc2ccccc2Cl)n1)C(=O)O [Example 40, 2-([1-[(2-Chlorophenyl)methyl]-5-[3-(morpholinomethyl)phenyl]1H-pyrazol-3-yl]methoxy)-2-methylpropanoic acid] | > 100000 nM | – |
| CC(C)(OCc1cc(Nc2ccccc2)n(Cc2ccccc2Cl)n1)C(=O)O [Example 75, 2-([1-[(2-chlorophenyl)methyl]-5-(phenylamino)-1H-pyrazol-3-yl]methoxy)-2-methylpropanoic Acid] | > 100000 nM | – |
| CC(C)(OCc1cc(-c2cccc(OC(F)(F)F)c2)n(Cc2ccccc2Cl)n1)C(=O)O [Example 34, 2-([1-[(2-Chlorophenyl)methyl]-5-[3-(trifluoromethoxy)phenyl]1H-pyrazol-3-yl]methoxy)-2-methylpropanoic acid] | > 11000 nM | – |
| Cc1ccccc1-n1nc(COC(C)(C)C(=O)O)cc1-c1cccc(OC2CCC2)c1 [Example 161, 2-([5-(3-Cyclobutoxyphenyl)-1-(2-methylphenyl)-1H-pyrazol-3-yl]-methoxy)-2-methylpropanoic acid] | – | Human microsome % 60 min [1]: 82%; Rat microsome % 60 min [3]: 80%; Mouse microsome % 60 min [2]: 99%; Mouse microsome t1/2, min ([2]; in vitro t1/2): ∞; bioavailability [4]: 61%; Difference in Weight Bearing, Minimal Efficacious Dose (CFA-induced arthritis [5]): ≤10 mg/kg; Mechanical Allodynia (Von Frey), Minimal Efficacious Dose (CFA-induced arthritis [6]): ≤10 mg/kg |

From patent publication US11292767B2, “Heterocyclic inhibitors of MCT4” (Vettore, LLC, priority 2016, dated 2022)
